{"source": "patent US6552080B1", "about": "“Fungicidal compounds having a fluorovinyl-or fluoropropenyl-oxyphenyloxime moiety and process for the preparation thereof” (Korea Research Institute of Chemical Technology, priority 1999, dated 2003)", "key": {"[1]": {"test_system": "Erysiphae graminis", "test": "Fungicidal activity against Barley Powdery Mildew (BPM) disease", "format": "in vivo"}, "[2]": {"test_system": "Rhizoctonia solani AG-1", "test": "Fungicidal activity against Rice Sheath Blight (RSB) disease", "protocol": "To examine fungicidal activity of the compounds of the present invention, each of the compounds listed in Table 3 and 4 was dissolved in 10% acetone to a concentration of 250 ppm, and Tween-20 was added thereto to a concentration of 250 or 500 ppm. 50 ml of the resulting solution was sprayed on leaves of a host plant. The plant was kept at room temperature for 24 hours to let the solvent evaporate, and then, a pathogenic fungus was inoculated thereonto. The plant was held in a humidity chamber for 24 hours, transferred to an plant growth room kept at 20 to 27° C. and a relative humidity of 60 to 80% and kept to induce disease. […] This procedure was repeated twice for each test. 10% Acetone solution containing 250 ppm of Tween-20 was used as a control.\nThe fungicidal activity of the compound of the present invention is repressed by a control value (C.V.) calculated as; [formula]\nRhizoctonia solani AG-1 was cultured on a PDA medium (potato 200 g, dextrose 20 g, agar 20 g and distilled water 1 ? for 3 days and the agar disc(diameter 0.6 cm) was inoculated and cultured on sterilized wheat bran medium in a 1 L bottle at 26 to 28° C. for 7 days. A mycelial mass was ground using a homogenizer, inoculated uniformly on soil of a pot wherein a Nakdong rice plant having 2 or 3 leaves and an height of 5 cm grew, and kept in humidity polyvinyl chamber for 5 days to induce RSB. L.A. on a leaf sheath was measured to calculate an C.V."}, "[3]": {"test_system": "Botrytis cinerae", "test": "Fungicidal activity against Cucumber Gray Mold Rot (CGM) disease", "format": "in vivo"}, "[4]": {"test_system": "Pyricularia oryzae Carvara KA301", "format": "in vivo"}, "[5]": {"test_system": "Puccinia recondita", "test": "Fungicidal activity against Wheat Leaf Rust (WLR) disease", "format": "in vivo"}, "[6]": {"test_system": "Phytophthora infestans", "format": "in vivo"}}, "note": "Like-named read-outs stand apart in the source and are kept apart here."}
{"smiles": "OC(c1ccc(Cl)cc1)(c1cncnc1)c1ccccc1Cl", "note": "(stereo not drawn) [FENARIMOL, reference compound]", "values": [{"measurement": "Fungicidal Activities BPM (C.V.)", "setting": "[1]; 0.08 ppm", "value": 50, "unit": "%"}, {"measurement": "Fungicidal Activities BPM (C.V.)", "setting": "[1]; 0.40 ppm", "value": 95, "unit": "%"}, {"measurement": "Fungicidal Activities BPM (C.V.)", "setting": "[1]; 2 ppm", "value": 100, "unit": "%"}, {"measurement": "Fungicidal Activities BPM (C.V.)", "setting": "[1]; 10 ppm", "value": 100, "unit": "%"}, {"measurement": "Fungicidal Activities RSB (C.V.)", "setting": "[2]; 0.08 ppm", "value": 14, "unit": "%"}, {"measurement": "Fungicidal Activities RSB (C.V.)", "setting": "[2]; 0.40 ppm", "value": 30, "unit": "%"}, {"measurement": "Fungicidal Activities RSB (C.V.)", "setting": "[2]; 2 ppm", "value": 40, "unit": "%"}, {"measurement": "Fungicidal Activities RSB (C.V.)", "setting": "[2]; 10 ppm", "value": 85, "unit": "%"}, {"measurement": "Fungicidal Activities CGM (C.V.)", "setting": "[3]; 0.08 ppm", "value": 0, "unit": "%"}, {"measurement": "Fungicidal Activities CGM (C.V.)", "setting": "[3]; 0.40 ppm", "value": 7, "unit": "%"}, {"measurement": "Fungicidal Activities CGM (C.V.)", "setting": "[3]; 2 ppm", "value": 7, "unit": "%"}, {"measurement": "Fungicidal Activities CGM (C.V.)", "setting": "[3]; 10 ppm", "value": 7, "unit": "%"}, {"measurement": "Fungicidal Activities RCV (C.V.)", "setting": "[4]; 0.08 ppm", "value": 0, "unit": "%"}, {"measurement": "Fungicidal Activities RCV (C.V.)", "setting": "[4]; 0.40 ppm", "value": 0, "unit": "%"}, {"measurement": "Fungicidal Activities RCV (C.V.)", "setting": "[4]; 2 ppm", "value": 0, "unit": "%"}, {"measurement": "Fungicidal Activities RCV (C.V.)", "setting": "[4]; 10 ppm", "value": 0, "unit": "%"}, {"measurement": "Fungicidal Activities WLR (C.V.)", "setting": "[5]; 0.08 ppm", "value": 15, "unit": "%"}, {"measurement": "Fungicidal Activities WLR (C.V.)", "setting": "[5]; 0.40 ppm", "value": 15, "unit": "%"}, {"measurement": "Fungicidal Activities WLR (C.V.)", "setting": "[5]; 2 ppm", "value": 80, "unit": "%"}, {"measurement": "Fungicidal Activities WLR (C.V.)", "setting": "[5]; 10 ppm", "value": 100, "unit": "%"}, {"measurement": "Fungicidal Activities TLB (C.V.)", "setting": "[6]; 0.08 ppm", "value": 0, "unit": "%"}, {"measurement": "Fungicidal Activities TLB (C.V.)", "setting": "[6]; 0.40 ppm", "value": 60, "unit": "%"}, {"measurement": "Fungicidal Activities TLB (C.V.)", "setting": "[6]; 2 ppm", "value": 75, "unit": "%"}, {"measurement": "Fungicidal Activities TLB (C.V.)", "setting": "[6]; 10 ppm", "value": 80, "unit": "%"}]}
